Drawing on patent publication US20260193180A1, “AUTOPHAGY INDUCING COMPOUNDS AND USES THEREOF” (SAMSARA THERAPEUTICS INC., priority 2022, published 2026), this text covers activation for 28 molecules.

The structures appear in SMILES notation. Counter-ions that a name gives are not always drawn. Where only a bound is given, the exact number is not on record here.

This test relates to Human osteosarcoma U2OS cells. The test is described as follows: Acidic vesicle formation (lysosome/autolysosome staining, LysoView 633 / LysoTracker Deep Red), stimulation of autophagy. The format is cell-based. As to conditions: 24 hours; for activation at 0.8 µM: read-out: Activity (percentage increase in acidic vesicle formation over the DMSO-treated control); for activation at 10 µM: read-out: increase in acidic vesicle formation over the DMSO-treated control. The protocol:
Lysosomes play a fundamental role in the autophagic pathway by fusing with autophagosomes and creating ‘autolysosomes’ in order to digest their contents. Stimulation of lysosome and autolysosome formation by a compound is indicative of a stimulation of autophagy. The ability of compounds to stimulate lysosome and autolysosome formation, and thus autophagy, in live cells was assessed via fluorescent microscopy using various fluorescent stains for labelling and tracking acidic organelles (including lysosomes and autolysosomes) such as: LysoView™ 650 (70059 and 70059-T, Biotium), LysoView™633 (70058 and 70058-T, Biotium) and LysoTracker™ Deep Red (L12492, ThermoFisher Scientific). The cellular phenotype was quantitatively assessed for the induction of acidic vesicle formation and compared to a non-treated control, thus providing a measure of the ability of the compound under investigation to stimulate autophagy.
Representative procedure using LysoView™633 dye or LysoTracker™ Deep Red dye: Human osteosarcoma U2OS cells (40,000 cells/well) were seeded in a 24 well glass bottom plate (Sensoplate, Greiner Bio-One) and were incubated overnight in a humidified atmosphere at 37° C. and 5% CO2. Cells were grown in DMEM (Gibco) supplemented with 10% Fetal Bovine Serum (FBS) and 100 units/ml penicillin and 100 μg/ml streptomycin (Invitrogen). After the attachment period, cells were treated with different compounds of interest (at various concentrations in DMSO) or DMSO (non-treated control) in cell culture medium and were incubated for 24 hours. Compound-containing medium was removed and cells were incubated with pre-warmed cell culture medium containing 1× LysoView™ 633 (70058 and 70058-T, Biotium) or 50 nM LysoTracker™ Deep Red (L12492, ThermoFisher Scientific) for 45 minutes at 37° C. Finally, cell nuclei were stained for 10 minutes using Hoechst 33342 (1 μg/mL) and then the medium was replaced with fresh medium. The 24 well plate was then fitted into a heated stage on the microscope and cells maintained at 37° C. Images were captured using appropriate filter set for Cy5 and DAPI detection with the EVOS M7000 Microscope (ThermoFisher Scientific). The cellular phenotype was visually assessed for the induction of acidic vesicle formation relative to the non-treated control; multiple images were acquired and analysed using ImageJ or Cell Profiler.

Turning to `CCOc1ccc(OC(F)(F)F)cc1CN1CCN[C@@H](C)C1` [Compound 38, (S)-1-(2-ethoxy-5-(trifluoromethoxy)benzyl)-3-methylpiperazine hydrochloride], the activation at 0.8 µM was 10 to 30% and the activation at 10 µM was at least 25%.
For `CCOc1ccc(CN2CCC(CN)C2)cc1Cl` (stereo not shown) [Compound 39, (1-(3-chloro-4-ethoxybenzyl)pyrrolidin-3-yl)methanamine hydrochloride] the same measures were 30 to 50% and at least 25%.
The corresponding values for `CCOc1ccc(Cl)cc1CN1CCNCC1` [Compound 40, 1-(5-chloro-2-ethoxybenzyl)piperazine hydrochloride] are 10 to 30% and at least 25%.
`CCOc1ccc(Cl)cc1CN1CCOC(CN)C1` (stereo not shown) [Compound 41, (4-(5-chloro-2-ethoxybenzyl)morpholin-2-yl)methanamine hydrochloride]: the activation at 0.8 µM was 10 to 30% and the activation at 10 µM was at least 25%.
Consider `CCOc1ccc(C(F)(F)F)cc1CCN1CC[C@@H](CN)C1` [Compound 42, (S)-(1-(2-ethoxy-5-(trifluoromethyl)phenethyl)pyrrolidin-3-yl)methanamine hydrochloride], for which the activation at 0.8 µM is 50 to 100% and the activation at 10 µM is at least 25%.
The corresponding values for `CCCOc1ccc(Cl)cc1CCN1CCC[C@@H](CN)C1` [Compound 43, (S)-(1-(5-chloro-2-propoxyphenethyl)piperidin-3-yl)methanamine hydrochloride] are 50 to 100% and at least 25%.
As to `NC[C@@H]1CCN(CCc2cc(Cl)ccc2OCC2CC2)C1` [Compound 44, (S)-(1-(5-chloro-2-(cyclopropylmethoxy)phenethyl)pyrrolidin-3-yl)methanamine hydrochloride], the activation at 0.8 µM lay in the range of 50 to 100% and the activation at 10 µM is at least 25%.
Consider `CCOc1ccc(Cl)cc1CCN1CCC[C@@H](CN)C1` [Compound 45, (S)-(1-(5-chloro-2-ethoxyphenethyl)piperidin-3-yl)methanamine hydrochloride], for which the activation at 0.8 µM was in the range of 50 to 100% and the activation at 10 µM was at least 25%.
The corresponding values for `C[C@H]1CN(Cc2cc(Cl)ccc2OCC2CC2)CCN1` [Compound 46, (S)-1-(5-chloro-2-(cyclopropylmethoxy)benzyl)-3-methylpiperazine hydrochloride] are 10 to 30% and at least 25%.
For `CCCOc1ccc(Cl)cc1CN1CCN[C@@H](C)C1` [Compound 47, (S)-1-(5-chloro-2-propoxybenzyl)-3-methylpiperazine hydrochloride] the same measures were 30 to 50% and at least 25%.
The corresponding values for `CCCOc1ccc(Cl)cc1CCN1CC[C@@H](CN)C1` [Compound 48, (S)-(1-(5-chloro-2-propoxyphenethyl)pyrrolidin-3-yl)methanamine hydrochloride] are 10 to 30% and at least 25%.
Take `CCOc1ccc(Cl)cc1CCN1CC[C@@H](CN)C1` [Compound 49, (S)-(1-(5-chloro-2-ethoxyphenethyl)pyrrolidin-3-yl)methanamine hydrochloride]: the activation at 10 µM was at least 25%.
As to `CCOc1ccc(Cl)cc1CN1CC[C@@H](CN(C)C)C1` [Compound 50, (S)-1-(1-(5-chloro-2-ethoxybenzyl)pyrrolidin-3-yl)-N,N-dimethylmethanamine], the activation at 0.8 µM was in the range of 10 to 30% and the activation at 10 µM was at least 25%.
On to `CCOc1ccc(Cl)cc1CN1CC[C@@H](CNC)C1` [Compound 51, (S)-1-(1-(5-chloro-2-ethoxybenzyl)pyrrolidin-3-yl)-N-methylmethanamine], for which the activation at 10 µM was at least 25%.
In the case of `CC(C)COc1ccc(Cl)cc1CN1CC[C@@H](CN)C1` [Compound 52, (S)-(1-(5-chloro-2-isobutoxybenzyl)pyrrolidin-3-yl)methanamine hydrochloride], the activation at 0.8 µM is 10 to 30% and the activation at 10 µM was at least 25%.
For the molecule `CC(C)Oc1ccc(Cl)cc1CN1CC[C@@H](CN)C1` [Compound 53, (S)-(1-(5-chloro-2-isopropoxybenzyl)pyrrolidin-3-yl)methanamine hydrochloride], the activation at 10 µM was at least 25%.
Same read-out and setting: next, `COCCOc1ccc(Cl)cc1CN1CC[C@@H](CN)C1` [Compound 54, (S)-(1-(5-chloro-2-(2-methoxyethoxy)benzyl)pyrrolidin-3-yl)methanamine hydrochloride]: at least 25%.
As to `NC[C@@H]1CCN(Cc2cc(Cl)cc3c2OCO3)C1` [Compound 55, (S)-(1-((6-chlorobenzo[d][1,3]dioxol-4-yl)methyl)pyrrolidin-3-yl)methanamine hydrochloride], the activation at 0.8 µM is above 100% and the activation at 10 µM was at least 25%.
The corresponding values for `CCOc1ccc(Cl)cc1CN1CC[C@H](CN)C1` [Compound 56, (R)-(1-(5-chloro-2-ethoxybenzyl)pyrrolidin-3-yl)methanamine hydrochloride] are above 100% and at least 25%.
Turning to `CCOc1ccc(CN2CC[C@@H](CN)C2)c(F)c1Cl` [Compound 57, (S)-(1-(3-chloro-4-ethoxy-2-fluorobenzyl)pyrrolidin-3-yl)methanamine hydrochloride], the activation at 10 µM is at least 25%.
The same measure, in the same setting: with `CCOc1cc(F)c(CN2CC[C@@H](CN)C2)cc1Cl` [Compound 58, (S)-(1-(5-chloro-4-ethoxy-2-fluorobenzyl)pyrrolidin-3-yl)methanamine hydrochloride] the figure was at least 25%.
On the same count and under the same terms, next, `CCOc1cc(C#N)c(Cl)cc1CN1CC[C@H](CN)C1` [Compound 60, (R)-4-((3-(aminomethyl)pyrrolidin-1-yl)methyl)-2-chloro-5-ethoxybenzonitrile hydrochloride]: at least 25%; `CCOc1cc(C#N)c(Cl)cc1CN1CC[C@@H](CN)C1` [Compound 61, (S)-4-((3-(aminomethyl)pyrrolidin-1-yl)methyl)-2-chloro-5-ethoxybenzonitrile hydrochloride]: at least 25%.
Same read-out and setting: with `CCOc1ccc(Cl)cc1CCN1CCO[C@@H](CN)C1` [Compound 63, (S)-(4-(5-chloro-2-ethoxyphenethyl)morpholin-2-yl)methanamine hydrochloride] the figure was at least 25%.
Regarding `CCOc1ccc(C#N)cc1CCN1CCC[C@@H](CN)C1` [Compound 64, (S)-3-(2-(3-(aminomethyl)piperidin-1-yl)ethyl)-4-ethoxybenzonitrile hydrochloride], the activation at 10 µM was at least 25%.
The same measure, in the same setting: next, `N#Cc1ccc(OCC2CC2)c(CCN2CC[C@@H](CN)C2)c1` [Compound 66, (S)-3-(2-(3-(aminomethyl)pyrrolidin-1-yl)ethyl)-4-(cyclopropylmethoxy)benzonitrile hydrochloride]: at least 25%; `CCOc1ccc(CCN2CCC[C@@H](CN)C2)cc1Cl` [Compound 67, (S)-(1-(3-chloro-4-ethoxyphenethyl)piperidin-3-yl)methanamine hydrochloride]: at least 25%; `CCOc1ccc(Cl)cc1CN1CC[C@H](N)C1` [Compound 69, (S)-1-(5-chloro-2-ethoxybenzyl)pyrrolidin-3-amine hydrochloride]: at least 25%.
